Measured values published in patent US20240360157A1, “TYK2 INHIBITORS” (BIOGEN MA INC., priority 2021, published 2024).

What was measured:
Assay type in all cases: biochemical
[1] = target: human JAK3 catalytic kinase (JH1) domain (Homo sapiens (Human), UniProt P52333); experiment: ADP-Glo Kinase Assay, recombinant JAK3 catalytic kinase (JH1) domain; conditions: recombinant JH1 domain 0.3 nM, 4 μM ATP, JAK3-974 peptide, mean, read-out: JAK3 biochem IC50 (nM) Mean
How it was run: (§1)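 Kinase 4 nM JAK1 / 0.2 nM JAK2 / 0.3 nM JAK3 / 2 nM TYK2; 50 μM peptide; 100 min. Unused ATP depleted, ADP→ATP, luciferase luminescence. 11-pt 3-fold series from 10 or 1 μM; normalized, 4PL fit → IC50.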

[2] = target: human TYK2 catalytic kinase (JH1) domain (Homo sapiens (Human), UniProt P29597); experiment: ADP-Glo Kinase Assay, recombinant TYK2 catalytic kinase (JH1) domain; conditions: recombinant JH1 domain 2 nM, 10 μM ATP, JAK3-974 peptide, mean, read-out: TYK2 biochem IC50 (nM) Mean
Chain of human TYK2 catalytic kinase (JH1) domain (P29597 897-1176): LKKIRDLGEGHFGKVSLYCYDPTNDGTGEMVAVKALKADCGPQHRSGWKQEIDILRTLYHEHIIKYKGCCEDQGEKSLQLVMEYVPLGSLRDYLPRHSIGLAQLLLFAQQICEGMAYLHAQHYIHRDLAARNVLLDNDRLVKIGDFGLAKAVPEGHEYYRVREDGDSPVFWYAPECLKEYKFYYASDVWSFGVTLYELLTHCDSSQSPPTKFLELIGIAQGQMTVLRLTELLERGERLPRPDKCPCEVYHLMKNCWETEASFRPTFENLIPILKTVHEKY
How it was run: as §1

[3] = target: human JAK2 catalytic kinase (JH1) domain (Homo sapiens (Human), UniProt O60674); experiment: ADP-Glo Kinase Assay, recombinant JAK2 catalytic kinase (JH1) domain; conditions: recombinant JH1 domain 0.2 nM, 15 μM ATP, JAK3-974 peptide, mean, read-out: JAK2 biochem IC50 (nM) Mean
Chain of human JAK2 catalytic kinase (JH1) domain (O60674 849-1124): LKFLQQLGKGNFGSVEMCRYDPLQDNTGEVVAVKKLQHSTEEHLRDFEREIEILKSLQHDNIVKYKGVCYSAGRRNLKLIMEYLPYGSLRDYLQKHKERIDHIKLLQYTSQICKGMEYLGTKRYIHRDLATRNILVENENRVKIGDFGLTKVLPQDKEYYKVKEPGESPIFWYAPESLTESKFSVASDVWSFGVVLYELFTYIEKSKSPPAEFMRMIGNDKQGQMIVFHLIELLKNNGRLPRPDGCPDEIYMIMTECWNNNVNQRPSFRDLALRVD
How it was run: as §1

[4] = target: human JAK1 catalytic kinase (JH1) domain (Homo sapiens (Human), UniProt P23458); experiment: ADP-Glo Kinase Assay, recombinant JAK1 catalytic kinase (JH1) domain; conditions: recombinant JH1 domain 4 nM, 35 μM ATP, JAK3-342 peptide, mean, read-out: JAK1 biochem IC50 (nM) Mean
Chain of human JAK1 catalytic kinase (JH1) domain (P23458 875-1153): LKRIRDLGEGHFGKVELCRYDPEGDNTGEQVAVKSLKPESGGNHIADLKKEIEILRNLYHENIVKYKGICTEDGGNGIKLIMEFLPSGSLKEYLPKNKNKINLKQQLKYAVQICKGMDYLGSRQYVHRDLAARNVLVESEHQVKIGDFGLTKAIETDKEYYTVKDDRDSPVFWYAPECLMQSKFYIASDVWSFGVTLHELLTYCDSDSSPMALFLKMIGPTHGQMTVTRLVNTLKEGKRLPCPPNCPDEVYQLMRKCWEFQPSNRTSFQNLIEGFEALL
How it was run: as §1

Chain of human JAK3 catalytic kinase (JH1) domain (P52333 822-1111): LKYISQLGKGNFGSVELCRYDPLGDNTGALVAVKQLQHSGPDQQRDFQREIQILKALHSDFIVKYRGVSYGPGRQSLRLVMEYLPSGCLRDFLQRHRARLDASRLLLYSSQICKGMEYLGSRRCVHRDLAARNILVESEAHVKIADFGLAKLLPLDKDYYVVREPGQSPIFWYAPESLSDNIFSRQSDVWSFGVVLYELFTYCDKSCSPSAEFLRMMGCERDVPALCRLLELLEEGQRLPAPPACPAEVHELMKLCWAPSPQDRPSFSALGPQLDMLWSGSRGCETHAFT

`Cn1cnc(-c2cc3c(N4CC5CCC(C4)N5C(=O)C4CC4)ncnn3c2)c1` [Example 143, Cyclopropyl(3-(6-(1-methyl-1H-imidazol-4-yl)pyrrolo[2,1-f][1,2,4]triazin-4-yl)-3,8-diazabicyclo[3.2.1]octan-8-yl)methanone] gave an IC50 [1] of 9690 nM, an IC50 [2] of 533 nM and an IC50 [3] of 9940 nM. For the same compound, the IC50 [4] was 10000 nM.
For `Cn1cc(-c2cc3c(N4CC5CCC(C4)N5C(=O)C4COC4)ncnn3c2)cn1` [Example 71, (3-(6-(1-methyl-1H-pyrazol-4-yl)pyrrolo[2,1-f][1,2,4]triazin-4-yl)-3,8-diazabicyclo[3.2.1]octan-8-yl)(oxetan-3-yl)methanone], the IC50 [1] was 10000 nM, the IC50 [2] was 911 nM and the IC50 [3] was 10000 nM. It also gave an IC50 [4] of 5320 nM.
With `O=C(C1CC1)N1C2CCC1CN(c1ncnn3cc(-c4cnn(C5CCOCC5)c4)cc13)C2` [Example 153] the IC50 [1] was 1900 nM, the IC50 [2] was 99.2 nM and the IC50 [3] was 1520 nM. For the same compound, the IC50 [4] was 1280 nM.
With `Cn1cc(-c2cc3c(N4CC5CCC(C4)N5S(=O)(=O)C4CC4)ccnn3c2)cn1` [Example 189, 4-(8-(cyclopropylsulfonyl)-3,8-diazabicyclo[3.2.1]octan-3-yl)-6-(1-methyl-1H-pyrazol-4-yl)pyrrolo[1,2-b]pyridazine] the IC50 [1] was 1020 nM, the IC50 [2] was 46.5 nM and the IC50 [3] was 208 nM. The IC50 [4] was 1210 nM.
For `Cc1cnc(-c2cc3c(N4CC5CCC(C4)N5C(=O)[C@@H]4C[C@H]4F)ccnn3c2)cn1` [Example 131, ((1S,2R)-2-fluorocyclopropyl)(3-(6-(5-methylpyrazin-2-yl)pyrrolo[1,2-b]pyridazin-4-yl)-3,8-diazabicyclo[3.2.1]octan-8-yl)methanone], the IC50 [1] was 5470 nM, the IC50 [2] was 50.7 nM and the IC50 [3] was 672 nM. For the same compound, the IC50 [4] was 562 nM.
`COc1cc(-c2cc3c(N4CC5CCC(C4)N5C(=O)[C@@H]4C[C@H]4F)c(F)cnc3[nH]2)ccn1` [Example 139, (3-(5-fluoro-2-(2-methoxypyridin-4-yl)-1H-pyrrolo[2,3-b]pyridin-4-yl)-3,8-diazabicyclo[3.2.1]octan-8-yl)((1S,2R)-2-fluorocyclopropyl)methanone] gave an IC50 [1] of 144 nM, an IC50 [2] of 5.5 nM and an IC50 [3] of 74 nM. The IC50 [4] was 39 nM.
Compound `O=C([C@@H]1C[C@H]1F)N1C2CCC1CN(c1ccnc3[nH]c(-c4ccnnc4)nc13)C2` [Example 207, ((1S,2R)-2-fluorocyclopropyl)(3-(2-(pyridazin-4-yl)-3H-imidazo[4,5-b]pyridin-7-yl)-3,8-diazabicyclo[3.2.1]octan-8-yl)methanone] has an IC50 [1] of 2680 nM, an IC50 [2] of 39.6 nM and an IC50 [3] of 150 nM. It also gave an IC50 [4] of 126 nM.
With `O=C(C1CC1)N1C2CCC1CN(c1ccnc3[nH]c(-c4cnn(C(F)F)c4)cc13)C2` [Example 237, cyclopropyl(3-(2-(1-(difluoromethyl)-1H-pyrazol-4-yl)-1H-pyrrolo[2,3-b]pyridin-4-yl)-3,8-diazabicyclo[3.2.1]octan-8-yl)methanone] the IC50 [1] was 183 nM, the IC50 [2] was 1.1 nM and the IC50 [3] was 39 nM. The IC50 [4] was 50 nM.
Compound `Cn1cc(-c2cc3c(N4CC5CCC(C4)N5C(=O)C4(F)CC4)ccnc3[nH]2)c(F)n1` [Example 243, (3-(2-(3-fluoro-1-methyl-1H-pyrazol-4-yl)-1H-pyrrolo[2,3-b]pyridin-4-yl)-3,8-diazabicyclo[3.2.1]octan-8-yl)(1-fluorocyclopropyl)methanone] has an IC50 [1] of 27 nM, an IC50 [2] of 2.8 nM and an IC50 [3] of 26 nM. It also gave an IC50 [4] of 79 nM.
`O=C([C@@H]1CC1(F)F)N1C2CCC1CN(c1ccnn3cc(-c4cnn(C(F)(F)F)c4)cc13)C2` [Example 19, ((S)-2,2-difluorocyclopropyl)(3-(6-(1-(trifluoromethyl)-1H-pyrazol-4-yl)pyrrolo[1,2-b]pyridazin-4-yl)-3,8-diazabicyclo[3.2.1]octan-8-yl)methanone] was tested, and the IC50 [1] was 518 nM, the IC50 [2] was 2.1 nM and the IC50 [3] was 29 nM. It also gave an IC50 [4] of 34 nM.
`Cn1cc(-c2cc3c(N4CC5CCC(C4)N5C(=O)C4CC(F)C4)ncnn3c2)cn1` (stereo not drawn) [Example 69, (3-fluorocyclobutyl)(3-(6-(1-methyl-1H-pyrazol-4-yl)pyrrolo[2,1-f][1,2,4]triazin-4-yl)-3,8-diazabicyclo[3.2.1]octan-8-yl)methanone] gave an IC50 [1] of 9720 nM, an IC50 [2] of 694 nM and an IC50 [3] of 10000 nM. For the same compound, the IC50 [4] was 6660 nM.
Work on `Cn1cc(-c2nc3c(N4CC5CCC(C4)N5C(=O)[C@@H]4C[C@H]4F)c(F)cnc3[nH]2)c(F)n1` [Example 213, (3-(6-fluoro-2-(3-fluoro-1-methyl-1H-pyrazol-4-yl)-3H-imidazo[4,5-b]pyridin-7-yl)-3,8-diazabicyclo[3.2.1]octan-8-yl)((1S,2R)-2-fluorocyclopropyl)methanone] yielded an IC50 [1] of 87 nM, an IC50 [2] of 2.5 nM and an IC50 [3] of 25 nM. The IC50 [4] was 37 nM.
With `O=C([C@@H]1C[C@H]1F)N1C2CCC1CN(c1ncnn3cc(-c4ccc(=O)n(C(F)F)c4)cc13)C2` [Example 110, 1-(difluoromethyl)-5-(4-(8-((1S,2R)-2-fluorocyclopropane-1-carbonyl)-3,8-diazabicyclo[3.2.1]octan-3-yl)pyrrolo[2,1-f][1,2,4]triazin-6-yl)pyridin-2(1H)-one] the IC50 [1] was 3960 nM, the IC50 [2] was 56.5 nM and the IC50 [3] was 812 nM. The IC50 [4] was 758 nM.
With `CN(C)c1cc(-c2cc3c(N4CC5CCC(C4)N5C(=O)[C@@H]4C[C@H]4F)ccnn3c2)ccn1` [Example 128, (3-(6-(2-(dimethylamino)pyridin-4-yl)pyrrolo[1,2-b]pyridazin-4-yl)-3,8-diazabicyclo[3.2.1]octan-8-yl)((1S,2R)-2-fluorocyclopropyl)methanone] the IC50 [1] was 844 nM, the IC50 [2] was 2.9 nM and the IC50 [3] was 68 nM. It also gave an IC50 [4] of 29 nM.
With `Cn1cc(-c2cc3c(N4CC5CCC(C4)N5C(=O)C(C)(F)F)ncnn3c2)cn1` [Example 72, 2,2-difluoro-1-(3-(6-(1-methyl-1H-pyrazol-4-yl)pyrrolo[2,1-f][1,2,4]triazin-4-yl)-3,8-diazabicyclo[3.2.1]octan-8-yl)propan-1-one] the IC50 [1] was 703 nM, the IC50 [2] was 206 nM and the IC50 [3] was 2340 nM. The IC50 [4] was 759 nM.
For `O=C(C1CC1)N1C2CCC1CN(c1ncnn3cc(-c4ccnc(Cl)c4)cc13)C2` [Example 180], the IC50 [1] was 10000 nM, the IC50 [2] was 547 nM and the IC50 [3] was 10000 nM. It also gave an IC50 [4] of 4750 nM.
`O=C(C1CCC1(F)F)N1C2CCC1CN(c1ncnn3cc(-c4cnn(C(F)F)c4)cc13)C2` (stereo not drawn) [Example 11, (2,2-difluorocyclobutyl)(3-(6-(1-(difluoromethyl)-1H-pyrazol-4-yl)pyrrolo[2,1-f][1,2,4]triazin-4-yl)-3,8-diazabicyclo[3.2.1]octan-8-yl)methanone] gave an IC50 [1] of 6670 nM, an IC50 [2] of 506 nM and an IC50 [3] of 8370 nM. The IC50 [4] was 1650 nM.
Work on `O=C(C1CC1)N1C2CCC1CN(c1ncnn3cc(-c4cnn(C5CCOC5)c4)cc13)C2` (stereo not drawn) [Example 152] yielded an IC50 [1] of 2590 nM, an IC50 [2] of 145 nM and an IC50 [3] of 2150 nM. The IC50 [4] was 1670 nM.
With `Cn1cc(-c2cc3c(N4CC5CCC(C4)N5C(=O)C4(F)CC4)ccnc3[nH]2)cn1` [Example 240, (1-fluorocyclopropyl)(3-(2-(1-methyl-1H-pyrazol-4-yl)-1H-pyrrolo[2,3-b]pyridin-4-yl)-3,8-diazabicyclo[3.2.1]octan-8-yl)methanone] the IC50 [1] was 35 nM, the IC50 [2] was 4.4 nM and the IC50 [3] was 42 nM. For the same compound, the IC50 [4] was 44 nM.
`O=C([C@@H]1C[C@H]1F)N1C2CCC1CN(c1ccnn3cc(-c4ccc(OC(F)F)nc4)cc13)C2` [Example 115, (3-(6-(6-(difluoromethoxy)pyridin-3-yl)pyrrolo[1,2-b]pyridazin-4-yl)-3,8-diazabicyclo[3.2.1]octan-8-yl)((1S,2R)-2-fluorocyclopropyl)methanone] gave an IC50 [1] of 961 nM, an IC50 [2] of 6 nM and an IC50 [3] of 82 nM. For the same compound, the IC50 [4] was 105 nM.
`O=C([C@@H]1C[C@H]1F)N1C2CCC1CN(c1ccnn3cc(-c4cnn(C(F)F)c4)cc13)C2` [Example 17, (3-(6-(1-(difluoromethyl)-1H-pyrazol-4-yl)pyrrolo[1,2-b]pyridazin-4-yl)-3,8-diazabicyclo[3.2.1]octan-8-yl)((1S,2R)-2-fluorocyclopropyl)methanone] gave an IC50 [1] of 437 nM, an IC50 [2] of 1 nM and an IC50 [3] of 36 nM. The IC50 [4] was 37 nM.
For `COc1cncc(-c2cc3c(N4CC5CCC(C4)N5C(=O)[C@@H]4C[C@H]4F)ccnn3c2)n1` [Example 123, ((1S,2R)-2-fluorocyclopropyl)(3-(6-(6-methoxypyrazin-2-yl)pyrrolo[1,2-b]pyridazin-4-yl)-3,8-diazabicyclo[3.2.1]octan-8-yl)methanone], the IC50 [1] was 5510 nM, the IC50 [2] was 23.7 nM and the IC50 [3] was 386 nM. For the same compound, the IC50 [4] was 302 nM.
With `CC(C)C(=O)N1C2CCC1CN(c1ncnn3cc(-c4cnn(C)c4)cc13)C2` [Example 58, 2-methyl-1-(3-(6-(1-methyl-1H-pyrazol-4-yl)pyrrolo[2,1-f][1,2,4]triazin-4-yl)-3,8-diazabicyclo[3.2.1]octan-8-yl)propan-1-one] the IC50 [1] was 10000 nM, the IC50 [2] was 960 nM and the IC50 [3] was 10000 nM. It also gave an IC50 [4] of 10000 nM.
`Cc1ccc(-c2nc3c(N4CC5CCC(C4)N5C(=O)[C@@H]4C[C@H]4F)ccnc3[nH]2)cn1` [Example 205, ((1S,2R)-2-fluorocyclopropyl)(3-(2-(6-methylpyridin-3-yl)-3H-imidazo[4,5-b]pyridin-7-yl)-3,8-diazabicyclo[3.2.1]octan-8-yl)methanone] gave an IC50 [1] of 246 nM, an IC50 [2] of 4.6 nM and an IC50 [3] of 22 nM. For the same compound, the IC50 [4] was 25 nM.
